Source: paper PMC5803236 (Scientific Reports, 2018)

Assays:
[1] = biological target: T1, hemagglutinin (HA) of H1N1 A/Puerto Rico/8/1934 (Influenza A virus (A/Puerto Rico/8/1934(H1N1)), UniProt P03452); type: cell-based
T1 construct: native HA on whole virus (virus antigen, 4 HAU); not purified protein

[2] = biological target: hemagglutinin (HA) of H1N1 A/Korea/01/2009 (Pandemic) (Influenza A virus (A/Korea/01/2009(H1N1)), UniProt C5MQE6)

CC(=O)N[C@H]1[C@H]([C@H](O)[C@H](O)CO)O[C@@](OC[C@H]2O[C@@H](O[C@H]3[C@H](O)[C@@H](O)C(O)O[C@@H]3CO)[C@H](O)[C@@H](O)[C@H]2O)(C(=O)O)C[C@@H]1O (some centres unmarked) [6′-sialyllactose]
MIC [1]: > 200 mM | MIC [2]: > 200 mM
